The test system of data set [1] is Cryopreserved human hepatocytes. The data set can be described thus: In vitro metabolic stability in human hepatocytes (Example 34). It is filed as in vitro ADME. The following applies: 1 μM, predicted hepatic extraction ratio. As for the experimental part: (§1) In vitro metabolic stabilities were studied at a concentration of 1 μM in the presence of liver microsomes and isolated hepatocytes.
(§2) A stock solution of the test compound was prepared at 10 mM (active compound) in DMSO. The in vitro stability of the test compound (1 μM) was assessed in the presence of hepatocytes as follows. Cryopreserved hepatocytes were thawed, isolated from shipping media and diluted to a density of 1×10^6 viable cells/mL, according to the supplier's guidelines, using Dulbecco's Modified Eagle Medium, 1×, high glucose (DMEM, Invitrogen, Carlsbad, Calif.). Viability was determined by trypan blue exclusion using a hemocytometer (3500 Hausser, VWR, West Chester, Pa.). […]
(§3) Data were acquired and peak areas were calculated for test compounds and the internal standard using Analyst 1.6.1 software (Sciex). […]
(§4) All calculations were performed using BioAssay Enterprise. The mean peak area ratios were calculated by averaging the peak area ratios (n=2) of test compound and the internal standard for each sample. Percent remaining was calculated by determining the ratio of the peak area ratio at each time point to the peak area ratio of the time-zero samples. The rate of loss of test compound (km) was determined by linear regression of—1n(f(t)) versus time. […] The t½ was determined dividing 1n(2) by km. […]

In data set [2] the test system is Rat cryopreserved hepatocytes. In words: In vitro metabolic stability in rat hepatocytes (Example 34). Type of data set: in vitro ADME, Sprague Dawley rat. The settings on record: 1 μM, predicted hepatic extraction ratio. As for the experimental part:
as §1, §2, §3, §4

The next data set deals with T1, MDR1 (P-gp) (Homo sapiens, UniProt P08183).
T1 construct: expressed in transfected cells; host or cells: LLC-PK1 cells
T1 sequence (P08183 whole entry): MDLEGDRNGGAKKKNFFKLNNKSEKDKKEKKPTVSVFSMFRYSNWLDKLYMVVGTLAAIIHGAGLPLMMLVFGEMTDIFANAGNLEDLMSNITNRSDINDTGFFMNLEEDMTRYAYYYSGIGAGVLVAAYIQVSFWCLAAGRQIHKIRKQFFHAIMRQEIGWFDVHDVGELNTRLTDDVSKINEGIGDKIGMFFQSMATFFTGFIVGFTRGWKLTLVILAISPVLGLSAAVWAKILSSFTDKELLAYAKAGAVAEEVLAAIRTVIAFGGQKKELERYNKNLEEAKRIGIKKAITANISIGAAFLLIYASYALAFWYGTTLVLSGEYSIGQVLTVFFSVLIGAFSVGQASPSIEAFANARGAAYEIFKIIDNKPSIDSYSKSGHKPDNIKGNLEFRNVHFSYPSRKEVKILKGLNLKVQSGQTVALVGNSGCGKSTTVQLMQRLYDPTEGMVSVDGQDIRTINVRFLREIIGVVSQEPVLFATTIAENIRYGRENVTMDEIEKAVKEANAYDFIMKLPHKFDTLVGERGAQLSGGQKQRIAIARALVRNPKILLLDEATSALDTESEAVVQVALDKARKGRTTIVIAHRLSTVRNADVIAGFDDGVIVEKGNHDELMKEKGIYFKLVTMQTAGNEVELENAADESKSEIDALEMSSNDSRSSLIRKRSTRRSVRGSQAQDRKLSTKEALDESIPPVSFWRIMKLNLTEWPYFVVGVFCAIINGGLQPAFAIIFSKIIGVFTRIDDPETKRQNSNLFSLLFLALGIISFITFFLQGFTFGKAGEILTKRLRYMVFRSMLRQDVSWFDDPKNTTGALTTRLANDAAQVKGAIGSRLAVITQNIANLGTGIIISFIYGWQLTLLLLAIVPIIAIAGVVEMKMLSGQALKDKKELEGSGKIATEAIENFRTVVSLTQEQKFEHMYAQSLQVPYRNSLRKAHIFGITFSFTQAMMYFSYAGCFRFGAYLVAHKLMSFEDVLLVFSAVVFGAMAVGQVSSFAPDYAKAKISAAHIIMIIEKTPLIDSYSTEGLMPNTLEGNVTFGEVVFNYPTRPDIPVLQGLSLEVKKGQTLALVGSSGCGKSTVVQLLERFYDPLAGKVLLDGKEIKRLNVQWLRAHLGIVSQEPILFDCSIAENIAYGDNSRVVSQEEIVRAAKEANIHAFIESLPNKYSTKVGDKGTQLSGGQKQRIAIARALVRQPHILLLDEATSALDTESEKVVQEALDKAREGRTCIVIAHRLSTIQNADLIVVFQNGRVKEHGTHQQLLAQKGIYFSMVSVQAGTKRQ
In words: MDR1 efflux in MDR1 transfected LLC-PK1 cells (Example 35). It is filed as in vitro ADME. The settings on record: pig, MDR1 transfected LLC-PK1 monolayers, read-out: MDRI efflux ratio. The method, then: Both LLC-PK1 and MDR1 transfected LLC-PK1 cells were cultured and plated according to manufacturer's recommendations with the exception that the passage media contained only 2% fetal bovine serum so as to extend passage time out to seven days.
Both positive and negative controls were used to assess functionality of P-gp efflux in the assay. Stock solutions for assay controls and the test article were prepared in DMSO for a final test concentrations of 10 μM. Final organic concentration in the assay was 1%. All dosing solutions contained 10 μM lucifer yellow to monitor LLC-PK1 cell monolayer integrity.
For the apical to basolateral determination (A to B), 75 μL of the test article in transport buffer were added to the apical side of the individual transwells and 250 μL of basolateral media, without compound or lucifer yellow, were added to each well. […] The plates were read using a Molecular Devices (Sunnyvale, Calif.) Gemini Fluorometer to evaluate the lucifer yellow concentrations at excitation/emission wavelengths of 425/535 nm. […] The plates were sealed and the contents of each well analyzed by LC-MS/MS. The compound concentrations were determined from the ratio of the peak areas of the compound to the internal standard (labetalol) in comparison to the dosing solution.
Permeability (Papp) was calculated in BioAssay v. […]

In the case of `C[C@@H]1CCc2ncc(F)cc2[C@H]2CCCN2c2ccn3ncc(c3n2)C(=O)N1` [Formula I], the “Human Hepatocyte Clearance (% ER)” value in data set [1] was 48 % ER. In addition, the “Rat Hepatocyte Clearance (% ER)” value in data set [2] was 64 % ER. Besides, at MDR1 (P-gp), the efflux ratio at 2 h, 10 μM worked out at 14.

In the case of `C[C@H]1CCc2ncc(F)cc2[C@H]2CCCN2c2ccn3ncc(c3n2)C(=O)N1` [formula I′], in data set [1], the “Human Hepatocyte Clearance (% ER)” value is on record as 74 % ER. Also, the “Rat Hepatocyte Clearance (% ER)” value in data set [2] was 83 % ER. For the same molecule, the efflux ratio at 2 h, 10 μM on MDR1 (P-gp) is 5.

The values above are taken from patent US11091486B2, “Process for the preparation of pyrazolo[1,5-a]pyrimidines and salts thereof” (Array BioPharma Inc., priority 2016, dated 2021).
